Laboratory results as given in patent publication US9844536B2, “3-(1H-imidazo[4,5-C]pyridin-2-yl)-1H-pyrazolo[3,4-C]pyridine and therapeutic uses thereof” (Samumed, LLC, priority 2014, dated 2017).

Test system: Wnt pathway (Sp5-Luc reporter, SW480 cells)
Test: Sp5-Luc reporter gene screening assay for Wnt activity in SW480 colon carcinoma cells
Format: cell-based
Settings: Homo sapiens
Description: The screening assay for Wnt activity is described as follows. Reporter cell lines can be generated by stably transducing cancer cell lines (e.g., colon cancer) or primary cells (e.g., IEC-6 intestinal cells) with a lentiviral construct that includes a Wnt-responsive promoter driving expression of the firefly luciferase gene.
SW480 colon carcinoma cells were transduced with a lentiviral vector expressing luciferase with a human Sp5 promoter consisting of a sequence of eight TCF/LEF binding sites. SW480 cells stably expressing the Sp5-Luc reporter gene and a hygromycin resistance gene were selected by treatment with 150 μg/ml of hygromycin for 7 days. These stably transduced SW480 cells were expanded in cell culture and used for all further screening activities. For Sp5-Luc reporter gene assays, the cells were plated at 10,000 cells/well in 96-well plates with growth medium containing 10% fetal calf serum and incubated overnight at 37° C. and 5% CO2. Each compound was dissolved in DMSO as a 10 mM stock in standard j-vials and used to prepare compound source plates in dose-response format with 3-fold serial dilutions and a 10 mM top concentration. Compound transfer from serially diluted source plates to assay plates containing the cells was accomplished using a pintool (Multimek 96, Beckman equipped with V&P Scientific FP1S50H pins) based liquid handling protocol. This protocol used a slotted pin to transfer 50 nl of compound from a source plate well to an assay plate well containing 50 μl of cells in growth medium. […] Control wells received 50 nl of DMSO treatment for normalization and calculating IC50 values. The treated cells were incubated at 37° C. and 5% CO2 for an additional forty-two hours. Following incubation, the growth medium was removed and 50 μl of BrightGlo luminescence reagent (Promega) was added to each well of the 96-well assay plates. The plates were placed on an orbital shaker for 5 min and then luminescence was quantified on the Victor3 (Perkin Elmer) plate reader. Readings were normalized to DMSO only treated cells, and normalized activities were utilized for IC50 calculations using the dose-response log (inhibitor) vs. response-variable slope (four parameters) nonlinear regression feature available in GraphPad Prism 5.0 or 6.0.

Compound	IC50
CCC(=O)Nc1cncc(-c2cc3c(-c4nc5c(-c6cccs6)nccc5[nH]4)n[nH]c3cn2)c1 [Compound 313, N-(5-(3-(4-(Thiophen-2-yl)-1H-imidazo[4,5-c]pyridin-2-yl)-1H-pyrazolo[3,4-c]pyridin-5-yl)pyridin-3-yl)propionamide]	28.6 nM
Fc1cccc(-c2nccc3[nH]c(-c4n[nH]c5cnc(-c6cncc(OC7CCNCC7)c6)cc45)nc23)c1 [Compound 944, 3-(4-(3-Fluorophenyl)-1H-imidazo[4,5-c]pyridin-2-yl)-5-(5-(piperidin-4-yloxy)pyridin-3-yl)-1H-pyrazolo[3,4-c]pyridine]	> 10000 nM
CCCC(=O)Nc1cncc(-c2cc3c(-c4nc5c(-c6ccccc6F)nccc5[nH]4)n[nH]c3cn2)c1 [Compound 69, N-(5-(3-(4-(2-Fluorophenyl)-1H-imidazo[4,5-c]pyridin-2-yl)-1H-pyrazolo[3,4-c]pyridin-5-yl)pyridin-3-yl)butyramide]	33.4 nM
c1ccc(CNCc2cncc(-c3cc4c(-c5nc6c(-c7cccnc7)nccc6[nH]5)n[nH]c4cn3)c2)cc1 [Compound 101, N-Benzyl-1-(5-(3-(4-(pyridin-3-yl)-1H-imidazo[4,5-c]pyridin-2-yl)-1H-pyrazolo[3,4-c]pyridin-5-yl)pyridin-3-yl)methanamine]	51.3 nM
CC(C)(C)C(=O)Nc1cncc(-c2cc3c(-c4nc5c(N6CCCCC6)nccc5[nH]4)n[nH]c3cn2)c1 [Compound 164, N-(5-(3-(4-(Piperidin-1-yl)-1H-imidazo[4,5-c]pyridin-2-yl)-1H-pyrazolo[3,4-c]pyridin-5-yl)pyridin-3-yl)pivalamide]	140 nM
CCCC(=O)Nc1cncc(-c2cc3c(-c4nc5c(-c6ccc(F)cc6)nccc5[nH]4)n[nH]c3cn2)c1 [Compound 43, N-(5-(3-(4-(4-Fluorophenyl)-1H-imidazo[4,5-c]pyridin-2-yl)-1H-pyrazolo[3,4-c]pyridin-5-yl)pyridin-3-yl)butyramide]	130 nM
Fc1cccc(-c2nccc3[nH]c(-c4n[nH]c5cnc(-c6cncc(OCc7ccccc7)c6)cc45)nc23)c1 [Compound 950, 5-(5-(Benzyloxy)pyridin-3-yl)-3-(4-(3-fluorophenyl)-1H-imidazo[4,5-c]pyridin-2-yl)-1H-pyrazolo[3,4-c]pyridine]	2010 nM
CC(C)CC(=O)Nc1cncc(-c2cc3c(-c4nc5c(-c6cc(F)cc(OCCN7CCCC7)c6)nccc5[nH]4)n[nH]c3cn2)c1 [Compound 1306, N-(5-(3-(4-(3-Fluoro-5-(2-(pyrrolidin-1-yl)ethoxy)phenyl)-1H-imidazo[4,5-c]pyridin-2-yl)-1H-pyrazolo[3,4-c]pyridin-5-yl)pyridin-3-yl)-3-methylbutanamide]	4220 nM
CC(C)CC(=O)Nc1cncc(-c2cc3c(-c4nc5c(-c6cc(F)cc(OCCN(C)C)c6)nccc5[nH]4)n[nH]c3cn2)c1 [Compound 1262, N-(5-(3-(4-(3-(2-(Dimethylamino)ethoxy)-5-fluorophenyl)-1H-imidazo[4,5-c]pyridin-2-yl)-1H-pyrazolo[3,4-c]pyridin-5-yl)pyridin-3-yl)-3-methylbutanamide]	2060 nM
CC(C)(C)CC(=O)Nc1cncc(-c2cc3c(-c4nc5c(-c6ccccc6F)nccc5[nH]4)n[nH]c3cn2)c1 [Compound 68, N-(5-(3-(4-(2-Fluorophenyl)-1H-imidazo[4,5-c]pyridin-2-yl)-1H-pyrazolo[3,4-c]pyridin-5-yl)pyridin-3-yl)-3,3-dimethylbutanamide]	920 nM
CC(C)(C)CC(=O)Nc1cncc(-c2cc3c(-c4nc5cnccc5[nH]4)n[nH]c3cn2)c1 [Compound 250, N-(5-(3-(1H-Imidazo[4,5-c]pyridin-2-yl)-1H-pyrazolo[3,4-c]pyridin-5-yl)pyridin-3-yl)-3,3-dimethylbutanamide]	> 10000 nM
Fc1cccc(-c2nccc3[nH]c(-c4n[nH]c5cnc(-c6cncc(OC7CCCCC7)c6)cc45)nc23)c1 [Compound 943, 5-(5-(Cyclohexyloxy)pyridin-3-yl)-3-(4-(3-fluorophenyl)-1H-imidazo[4,5-c]pyridin-2-yl)-1H-pyrazolo[3,4-c]pyridine]	255 nM
CC(C)CC(=O)Nc1cncc(-c2cc3c(-c4nc5c(-c6cccs6)nccc5[nH]4)n[nH]c3cn2)c1 [Compound 314, 3-Methyl-N-(5-(3-(4-(thiophen-2-yl)-1H-imidazo[4,5-c]pyridin-2-yl)-1H-pyrazolo[3,4-c]pyridin-5-yl)pyridin-3-yl)butanamide]	359 nM
CCCCC(=O)Nc1cncc(-c2cc3c(-c4nc5c(-c6ccccn6)nccc5[nH]4)n[nH]c3cn2)c1 [Compound 148, N-(5-(3-(4-(Pyridin-2-yl)-1H-imidazo[4,5-c]pyridin-2-yl)-1H-pyrazolo[3,4-c]pyridin-5-yl)pyridin-3-yl)pentanamide]	199 nM
Fc1cccc(-c2nccc3[nH]c(-c4n[nH]c5cnc(-c6ccncc6)cc45)nc23)c1 [Compound 952, 3-(4-(3-Fluorophenyl)-1H-imidazo[4,5-c]pyridin-2-yl)-5-(pyridin-4-yl)-1H-pyrazolo[3,4-c]pyridine]	32 nM
CN1CCN(c2nccc3[nH]c(-c4n[nH]c5cnc(-c6cncc(N)c6)cc45)nc23)CC1 [Compound 211, 5-(3-(4-(4-Methylpiperazin-1-yl)-1H-imidazo[4,5-c]pyridin-2-yl)-1H-pyrazolo[3,4-c]pyridin-5-yl)pyridin-3-amine]	118 nM
Cc1cn(-c2nccc3[nH]c(-c4n[nH]c5cnc(-c6cncc(NC(=O)CC(C)C)c6)cc45)nc23)cn1 [Compound 184]	41 nM
O=C(Nc1cncc(-c2cc3c(-c4nc5c(-c6cccs6)nccc5[nH]4)n[nH]c3cn2)c1)C1CCC1 [Compound 332, N-(5-(3-(4-(Thiophen-2-yl)-1H-imidazo[4,5-c]pyridin-2-yl)-1H-pyrazolo[3,4-c]pyridin-5-yl)pyridin-3-yl)cyclobutanecarboxamide]	37.8 nM
O=C(CC1CCCCC1)Nc1cncc(-c2cc3c(-c4nc5c(-c6cccc(F)c6)nccc5[nH]4)n[nH]c3cn2)c1 [Compound 951, 2-Cyclohexyl-N-(5-(3-(4-(3-fluorophenyl)-1H-imidazo[4,5-c]pyridin-2-yl)-1H-pyrazolo[3,4-c]pyridin-5-yl)pyridin-3-yl)acetamide]	1040 nM
CC(C)(C)C(=O)Nc1cncc(-c2cc3c(-c4nc5c(-c6ccoc6)nccc5[nH]4)n[nH]c3cn2)c1 [Compound 294, N-(5-(3-(4-(Furan-3-yl)-1H-imidazo[4,5-c]pyridin-2-yl)-1H-pyrazolo[3,4-c]pyridin-5-yl)pyridin-3-yl)pivalamide]	38.7 nM
c1cncc(-c2nccc3[nH]c(-c4n[nH]c5cnc(-c6cncc(CN7CCCCC7)c6)cc45)nc23)c1 [Compound 93, 5-(5-(Piperidin-1-ylmethyl)pyridin-3-yl)-3-(4-(pyridin-3-yl)-1H-imidazo[4,5-c]pyridin-2-yl)-1H-pyrazolo[3,4-c]pyridine]	> 10000 nM
Fc1cccc(-c2nccc3[nH]c(-c4n[nH]c5cnc(-c6cncc(OCCN7CCCC7)c6)cc45)nc23)c1 [Compound 946, 3-(4-(3-Fluorophenyl)-1H-imidazo[4,5-c]pyridin-2-yl)-5-(5-(2-(pyrrolidin-1-yl)ethoxy)pyridin-3-yl)-1H-pyrazolo[3,4-c]pyridine]	> 10000 nM
CC(C)CC(=O)Nc1cncc(-c2cc3c(-c4nc5c(-c6ccccc6F)nccc5[nH]4)n[nH]c3cn2)c1 [Compound 54, N-(5-(3-(4-(2-Fluorophenyl)-1H-imidazo[4,5-c]pyridin-2-yl)-1H-pyrazolo[3,4-c]pyridin-5-yl)pyridin-3-yl)-3-methylbutanamide]	47.6 nM
CCC(=O)Nc1cncc(-c2cc3c(-c4nc5c(-c6cccc(F)c6)nccc5[nH]4)n[nH]c3cn2)c1 [Compound 1, N-(5-(3-(4-(3-Fluorophenyl)-1H-imidazo[4,5-c]pyridin-2-yl)-1H-pyrazolo[3,4-c]pyridin-5-yl)pyridin-3-yl)propionamide]	34.1 nM
